Consider three compounds from patent US20210369667A1, “COMPOSITIONS AND METHODS FOR THE PREVENTION AND TREATMENT OF RADIATION DERMATITIS, ECZEMA, BURNS, WOUNDS AND CERTAIN CANCERS” (VIZURI HEALTH SCIENCES CONSUMER HEALTHCARE, INC., priority 2019, published 2021).

Series [1] in a line: Apigenin solubility in NaOH solutions. The series is classed as physicochemical. The settings on record: sodium hydroxide solution, aqueous buffer. From the text:
A good solubility of polyphenols in the alkaline medium is very important in generating well hydrated polyphenols upon acidification. The regenerated hydrated products mix well in the formulations. Sodium hydroxide solution is an effective solubilizer at different concentrations for apigenin, a polyphenol flavonoid. This is exemplified in the table below— Apigenin Solubility in NaOH Solutions [table]

In series [2] the test system is acute radiation dermatitis. The settings on record: 49 patients; prophylactic MMF with emollient cream vs emollient cream alone; cited from earlier work.
Series [3] can be described thus: SEM particle morphology of hydrated apigenin. The series is classed as physicochemical. The text has this:
Scanning Electron Microscopy (SEM) images of the hydrated apigenin, and unprocessed apigenin powder were collected to determine particle morphology details. […] The chemical composition as determined by FTIR and Raman Spectroscopy, could not detect any chemical differences in the unprocessed apigenin and the hydrated apigenin. […] The hydrated apigenin was composed of fibers with diameters of 30-500 nm (a range of being nano-fibers) with aspect ratios measuring greater than 20.

For `O=c1cc(-c2ccc(O)cc2)oc2cc(O)cc(O)c12` [Apigenin], the solubility was > 150 mg/mL in series [1] (NaOH Molarity 0.75 moles/liter), > 200 mg/mL in series [1] (NaOH Molarity 1.015 moles/liter) and > 300 mg/mL in series [1] (NaOH Molarity 2.0 moles/liter).
With `C[C@@H]1C[C@H]2[C@@H]3CCC4=CC(=O)C=C[C@]4(C)[C@@]3(Cl)[C@@H](O)C[C@]2(C)[C@@]1(OC(=O)c1ccco1)C(=O)CCl` [MMF, mometasone furoate], in series [2], the acute radiation dermatitis entry was “significantly decreased acute radiation dermatitis”.
Turning to `O=c1cc(-c2ccc(O)cc2)oc2cc(O)cc(O)c12` [hydrated apigenin], in series [3], the “aspect ratios of fibers” value was “greater than 20” and the fiber diameters is reported as 30-500 nm.

Usually solubility stands for the dissolved amount per volume that the medium holds. Low values mean little dissolved substance, high ones much dissolved substance.
